# Assay results published in patent US10604476B2, “Fluorinated amide derivatives and their uses as therapeutic agents” (Trillium Therapeutics Inc., priority 2015, dated 2020).
# Tests used:
# [1] = test system: maximal electroshock seizure; assay: Maximal Electroshock Seizure (MES) rat model; type: in vivo; conditions: po, 0.5 hour
# Protocol: Male, Sprague-Dawley rats and CD-1 mice were used for all studies. All animals were allowed ad-lib access to food and water except during experiment. Animals were housed within an animal vivarium maintained under a 12 h light:dark cycle (lights on: 07:00 h), and all experiments were conducted in the animals light phase. For all experiments, animals were habituated to the vivarium for a minimum of 72 h before experimentation. The experimental procedures used in the present investigation were conducted under the Association for Assessment and Accreditation of Laboratory Animal Care (AAALAC) and the Canadian Council on Animal Care (CCAC) guidelines. All compounds were sonicated in 5% Tween 80® in saline or methylcellulose 0.5% (wgt/vol), using MC and sterile water and injected in a dose volume of 5 ml/kg or 10 ml/kg (rat), and 10 ml/kg (mouse). Drugs were administered by either the oral, intraperitoneal or intravenous route. Male Sprague-Dawley rats of body weight 80-100 g were used for these studies. Each experiment was conducted over 3 consecutive days. On day 1 and 2, each rat received a single electrical stimulus (150 mA, 0.2 s duration, 60 Hz) via corneal electrodes moistened with saline (Shock stimulator type 221: Harvard apparatus). […] Typically this reflected approximately 70-90% of the initial group. […] On the test day following a defined drug pretreatment period, rats received a maximal electroshock (150 mA, 0.2 s duration, 60 Hz) via corneal electrodes. Protection was defined as absence of a full tonic seizure within 10 s of stimulus delivery. Twenty minutes before the MES procedure, the animals were tested on a fixed speed rotorod (best score from 3 trials at 8 r.p.m, trial duration=60 s) to give an early assessment of drug effect on gross motor function.
# [2] = test system: gross motor function; assay: Fixed speed rotorod, rat (gross motor function); conditions: Sprague-Dawley, in vivo, po
# Protocol: On the test day following a defined drug pretreatment period, rats received a maximal electroshock (150 mA, 0.2 s duration, 60 Hz) via corneal electrodes. Protection was defined as absence of a full tonic seizure within 10 s of stimulus delivery. Twenty minutes before the MES procedure, the animals were tested on a fixed speed rotorod (best score from 3 trials at 8 r.p.m, trial duration=60 s) to give an early assessment of drug effect on gross motor function.
# [3] = test system: 6 Hz psychomotor seizure; assay: Mouse 6 Hz model; type: in vivo; conditions: mice, ip, 0.5 hour, 32 mA
# Protocol: Male, Sprague-Dawley rats and CD-1 mice were used for all studies. All animals were allowed ad-lib access to food and water except during experiment. Animals were housed within an animal vivarium maintained under a 12 h light:dark cycle (lights on: 07:00 h), and all experiments were conducted in the animals light phase. For all experiments, animals were habituated to the vivarium for a minimum of 72 h before experimentation. The experimental procedures used in the present investigation were conducted under the Association for Assessment and Accreditation of Laboratory Animal Care (AAALAC) and the Canadian Council on Animal Care (CCAC) guidelines. All compounds were sonicated in 5% Tween 80® in saline or methylcellulose 0.5% (wgt/vol), using MC and sterile water and injected in a dose volume of 5 ml/kg or 10 ml/kg (rat), and 10 ml/kg (mouse). Drugs were administered by either the oral, intraperitoneal or intravenous route. […] Preliminary experiments established that these stimulus parameters elicited a psychomotor seizure, defined as the expression of at least one of the following behaviors: stun/immobility, forelimb clonus, straub tail, vibrissae tremor, lateral head movement in >95% of control animals. Protection was defined as complete absence of all the above behaviors within 20 s of stimulus delivery. The effective dose of compound necessary to protect against psychomotor seizures to 50% of controls (i.e. ED50) was determined by curve fitting program (Prism v.4.02).
# [4] = test system: gross motor function; assay: Rotorod, mouse (Table 8); conditions: in vivo, po, Table 8, mouse
# [5] = test system: fully kindled (stage 5) seizures, amygdala kindled rat; assay: Amygdala kindled rat model; type: in vivo; conditions: <60 mg/kg i.p.
# Excerpt: Amygdala kindling model is an animal model for complex partial seizures, which is the most common type of epilepsy in adults and is often drug resistant.
SMILES,ED50 [1],ED50 at 0.5 hour [2],ED50 [3],ED50 at 0.5 hour [4],suppression of fully kindled (stage 5) seizures compared to vehicle controls [5]
"CN(CC(N)=O)c1cc(C(F)(F)F)cc(C(F)(F)F)c1 [I(A), 2-[(3,5-Bis-trifluoromethyl-phenyl)-methyl-amino]-acetamide]",48 ± 1.1 mg/kg,> 500 mg/kg,62.5 ± 1 mg/kg,> 160 mg/kg,–
"NC(=O)C(F)(F)Oc1cc(Cl)cc(C(F)(F)F)c1 [Compound I(E), 2-[3-chloro-5-(trifluoromethyl)-phenoxy]-2,2-difluoro-acetamide]",–,–,–,–,dose related suppression
